Like-named read-outs stand apart in the source and are kept apart here.
Key:
[1] = system: Key Grass and Sedge Weeds as well as Grass Crops; assay: Post-Emergent Test II: postemergent herbicidal activity, visual rating after 14 d (Table 8); assay type: in vivo; details: post-emergence, 336 h; for pest or weed control at 35 g/ha: 35 g ai/ha; for pest or weed control at 70 g/ha: 70 g ai/ha; for pest or weed control at 140 g/ha: 140 g ai/ha
How it was run: (§1)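 Scoring is visual, 0-100, at 14 d after application, comparing treated with untreated plants. Application: overhead track spray at 187 L/ha onto seedlings at 1-2 true leaves, in surfactant/crop-oil carrier.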

[2] = system: Key Broadleaf Weed and Crop Species; assay: Post-Emergent Test II: postemergent herbicidal activity, visual rating after 14 d (Table 7); assay type: in vivo; details: post-emergence, 336 h; for pest or weed control at 35 g/ha: 35 g ai/ha; for pest or weed control at 70 g/ha: 70 g ai/ha; for pest or weed control at 140 g/ha: 140 g ai/ha
How it was run: as §1

[3] = barnyardgrass (Echinochloa crus-galli), read-out: Visual Growth Reduction (%) 14 Days After Application ECHCG
[4] = giant foxtail (Setaria faberi), read-out: Visual Growth Reduction (%) 14 Days After Application SETFA
[5] = maize, corn (Zea mays), read-out: Visual Growth Reduction (%) 14 Days After Application ZEAMX
[6] = rice (Oryza sativa), read-out: Visual Growth Reduction (%) 14 Days After Application ORYSA
[7] = wheat, spring (Triticum aestivum), read-out: Visual Growth Reduction (%) 14 Days After Application TRZAS
[8] = yellow nutsedge (Cyperus esculentus), read-out: Visual Growth Reduction (%) 14 Days After Application CYPES
[9] = lambsquarters (Chenopodium album), read-out: Visual Growth Reduction (%) 14 Days After Application CHEAL
[10] = oilseed rape, canola (Brassica napus), read-out: Visual Growth Reduction (%) 14 Days After Application BRSNN
[11] = redroot pigweed (Amaranthus retroflexus), read-out: Visual Growth Reduction (%) 14 Days After Application AMARE
[12] = sunflower (Helianthus annuus), read-out: Visual Growth Reduction (%) 14 Days After Application HELAN
[13] = velvetleaf (Abutilon theophrasti), read-out: Visual Growth Reduction (%) 14 Days After Application ABUTH
[14] = wild poinsettia (Euphorbia heterophylla), read-out: Visual Growth Reduction (%) 14 Days After Application EPHHL

Structure (SMILES): COC(=O)c1nc(-c2ccc3c(c2)OC(F)(F)O3)c(Cl)c(N)c1Cl [Compound 1]
- pest or weed control at 35 g/ha [1, 3]: 45 to 59%
- pest or weed control at 70 g/ha [1, 3]: 60 to 74%
- pest or weed control at 140 g/ha [1, 3]: 60 to 74%
- pest or weed control at 35 g/ha [1, 4]: 0 to 29%
- pest or weed control at 70 g/ha [1, 4]: 45 to 59%
- pest or weed control at 140 g/ha [1, 4]: 45 to 59%
- pest or weed control at 35 g/ha [1, 5]: 60 to 74%
- pest or weed control at 70 g/ha [1, 5]: 60 to 74%
- pest or weed control at 140 g/ha [1, 5]: 60 to 74%
- pest or weed control at 35 g/ha [1, 6]: 0 to 29%
- pest or weed control at 70 g/ha [1, 6]: 0 to 29%
- pest or weed control at 140 g/ha [1, 6]: 0 to 29%
- pest or weed control at 35 g/ha [1, 7]: 0 to 29%
- pest or weed control at 70 g/ha [1, 7]: 0 to 29%
- pest or weed control at 140 g/ha [1, 7]: 0 to 29%
- pest or weed control at 35 g/ha [1, 8]: 0 to 29%
- pest or weed control at 70 g/ha [1, 8]: 0 to 29%
- pest or weed control at 140 g/ha [1, 8]: 0 to 29%
- pest or weed control at 35 g/ha [2, 9]: 0 to 29%
- pest or weed control at 70 g/ha [2, 9]: 0 to 29%
- pest or weed control at 140 g/ha [2, 9]: 0 to 29%
- pest or weed control at 35 g/ha [2, 10]: 0 to 29%
- pest or weed control at 70 g/ha [2, 10]: 0 to 29%
- pest or weed control at 140 g/ha [2, 10]: 0 to 29%
- pest or weed control at 35 g/ha [2, 11]: 0 to 29%
- pest or weed control at 70 g/ha [2, 11]: 0 to 29%
- pest or weed control at 140 g/ha [2, 11]: 0 to 29%
- pest or weed control at 35 g/ha [2, 12]: 85 to 94%
- pest or weed control at 70 g/ha [2, 12]: 85 to 94%
- pest or weed control at 140 g/ha [2, 12]: 85 to 94%
- pest or weed control at 35 g/ha [2, 13]: 0 to 29%
- pest or weed control at 70 g/ha [2, 13]: 0 to 29%
- pest or weed control at 140 g/ha [2, 13]: 0 to 29%
- pest or weed control at 35 g/ha [2, 14]: 0 to 29%
- pest or weed control at 70 g/ha [2, 14]: 0 to 29%
- pest or weed control at 140 g/ha [2, 14]: 0 to 29%

Structure (SMILES): COC(=O)c1nc(-c2cc3c(cc2F)OCO3)c(F)c(N)c1OC [Compound 26]
- pest or weed control at 35 g/ha [1, 3]: 45 to 59%
- pest or weed control at 70 g/ha [1, 3]: 60 to 74%
- pest or weed control at 140 g/ha [1, 3]: 75 to 84%
- pest or weed control at 35 g/ha [1, 4]: 0 to 29%
- pest or weed control at 70 g/ha [1, 4]: 0 to 29%
- pest or weed control at 140 g/ha [1, 4]: 0 to 29%
- pest or weed control at 35 g/ha [1, 5]: 45 to 59%
- pest or weed control at 70 g/ha [1, 5]: 45 to 59%
- pest or weed control at 140 g/ha [1, 5]: 60 to 74%
- pest or weed control at 35 g/ha [1, 6]: 0 to 29%
- pest or weed control at 70 g/ha [1, 6]: 0 to 29%
- pest or weed control at 140 g/ha [1, 6]: 0 to 29%
- pest or weed control at 35 g/ha [1, 7]: 0 to 29%
- pest or weed control at 70 g/ha [1, 7]: 0 to 29%
- pest or weed control at 140 g/ha [1, 7]: 0 to 29%
- pest or weed control at 35 g/ha [1, 8]: 0 to 29%
- pest or weed control at 70 g/ha [1, 8]: 0 to 29%
- pest or weed control at 140 g/ha [1, 8]: 0 to 29%
- pest or weed control at 35 g/ha [2, 9]: 0 to 29%
- pest or weed control at 70 g/ha [2, 9]: 0 to 29%
- pest or weed control at 140 g/ha [2, 9]: 0 to 29%
- pest or weed control at 35 g/ha [2, 10]: 45 to 59%
- pest or weed control at 70 g/ha [2, 10]: 60 to 74%
- pest or weed control at 140 g/ha [2, 10]: 75 to 84%
- pest or weed control at 35 g/ha [2, 11]: 0 to 29%
- pest or weed control at 70 g/ha [2, 11]: 0 to 29%
- pest or weed control at 140 g/ha [2, 11]: 85 to 94%
- pest or weed control at 35 g/ha [2, 12]: 85 to 94%
- pest or weed control at 70 g/ha [2, 12]: 95 to 100%
- pest or weed control at 140 g/ha [2, 12]: 95 to 100%
- pest or weed control at 35 g/ha [2, 13]: 0 to 29%
- pest or weed control at 70 g/ha [2, 13]: 0 to 29%
- pest or weed control at 140 g/ha [2, 13]: 0 to 29%
- pest or weed control at 35 g/ha [2, 14]: 95 to 100%
- pest or weed control at 70 g/ha [2, 14]: 95 to 100%
- pest or weed control at 140 g/ha [2, 14]: 95 to 100%

Structure (SMILES): C=Cc1c(C(=O)OC)nc(-c2cc3c(cc2F)OC(F)(F)O3)c(F)c1N [Compound 27]
- pest or weed control at 35 g/ha [1, 3]: 0 to 29%
- pest or weed control at 70 g/ha [1, 3]: 0 to 29%
- pest or weed control at 140 g/ha [1, 3]: 0 to 29%
- pest or weed control at 35 g/ha [1, 4]: 0 to 29%
- pest or weed control at 70 g/ha [1, 4]: 0 to 29%
- pest or weed control at 140 g/ha [1, 4]: 0 to 29%
- pest or weed control at 35 g/ha [1, 5]: 0 to 29%
- pest or weed control at 70 g/ha [1, 5]: 0 to 29%
- pest or weed control at 140 g/ha [1, 5]: 30 to 44%
- pest or weed control at 35 g/ha [1, 6]: 0 to 29%
- pest or weed control at 70 g/ha [1, 6]: 0 to 29%
- pest or weed control at 140 g/ha [1, 6]: 0 to 29%
- pest or weed control at 35 g/ha [1, 7]: 0 to 29%
- pest or weed control at 70 g/ha [1, 7]: 0 to 29%
- pest or weed control at 140 g/ha [1, 7]: 0 to 29%
- pest or weed control at 35 g/ha [1, 8]: 0 to 29%
- pest or weed control at 70 g/ha [1, 8]: 0 to 29%
- pest or weed control at 140 g/ha [1, 8]: 0 to 29%
- pest or weed control at 35 g/ha [2, 9]: 0 to 29%
- pest or weed control at 70 g/ha [2, 9]: 0 to 29%
- pest or weed control at 140 g/ha [2, 9]: 0 to 29%
- pest or weed control at 35 g/ha [2, 10]: 0 to 29%
- pest or weed control at 70 g/ha [2, 10]: 0 to 29%
- pest or weed control at 140 g/ha [2, 10]: 0 to 29%
- pest or weed control at 35 g/ha [2, 11]: 0 to 29%
- pest or weed control at 70 g/ha [2, 11]: 0 to 29%
- pest or weed control at 140 g/ha [2, 11]: 0 to 29%
- pest or weed control at 35 g/ha [2, 12]: 30 to 44%
- pest or weed control at 70 g/ha [2, 12]: 75 to 84%
- pest or weed control at 140 g/ha [2, 12]: 85 to 94%
- pest or weed control at 35 g/ha [2, 13]: 0 to 29%
- pest or weed control at 70 g/ha [2, 13]: 0 to 29%
- pest or weed control at 140 g/ha [2, 13]: 0 to 29%
- pest or weed control at 35 g/ha [2, 14]: 0 to 29%
- pest or weed control at 70 g/ha [2, 14]: 0 to 29%
- pest or weed control at 140 g/ha [2, 14]: 0 to 29%

Structure (SMILES): C=Cc1c(C(=O)O)nc(-c2cc3c(cc2F)OC(F)(F)O3)c(F)c1N [Compound 28]
- pest or weed control at 35 g/ha [1, 3]: 60 to 74%
- pest or weed control at 70 g/ha [1, 3]: 75 to 84%
- pest or weed control at 140 g/ha [1, 3]: 75 to 84%
- pest or weed control at 35 g/ha [1, 4]: 0 to 29%
- pest or weed control at 70 g/ha [1, 4]: 45 to 59%
- pest or weed control at 140 g/ha [1, 4]: 60 to 74%
- pest or weed control at 35 g/ha [1, 5]: 60 to 74%
- pest or weed control at 70 g/ha [1, 5]: 60 to 74%
- pest or weed control at 140 g/ha [1, 5]: 75 to 84%
- pest or weed control at 35 g/ha [1, 6]: 0 to 29%
- pest or weed control at 70 g/ha [1, 6]: 0 to 29%
- pest or weed control at 140 g/ha [1, 6]: 0 to 29%
- pest or weed control at 35 g/ha [1, 7]: 0 to 29%
- pest or weed control at 70 g/ha [1, 7]: 0 to 29%
- pest or weed control at 140 g/ha [1, 7]: 30 to 44%
- pest or weed control at 35 g/ha [1, 8]: 95 to 100%
- pest or weed control at 70 g/ha [1, 8]: 95 to 100%
- pest or weed control at 140 g/ha [1, 8]: 95 to 100%
- pest or weed control at 35 g/ha [2, 9]: 0 to 29%
- pest or weed control at 70 g/ha [2, 9]: 0 to 29%
- pest or weed control at 140 g/ha [2, 9]: 0 to 29%
- pest or weed control at 35 g/ha [2, 10]: 0 to 29%
- pest or weed control at 70 g/ha [2, 10]: 0 to 29%
- pest or weed control at 140 g/ha [2, 10]: 60 to 74%
- pest or weed control at 35 g/ha [2, 11]: 0 to 29%
- pest or weed control at 70 g/ha [2, 11]: 0 to 29%
- pest or weed control at 140 g/ha [2, 11]: 0 to 29%
- pest or weed control at 35 g/ha [2, 12]: 85 to 94%
- pest or weed control at 70 g/ha [2, 12]: 85 to 94%
- pest or weed control at 140 g/ha [2, 12]: 95 to 100%
- pest or weed control at 35 g/ha [2, 13]: 0 to 29%
- pest or weed control at 70 g/ha [2, 13]: 0 to 29%
- pest or weed control at 140 g/ha [2, 13]: 60 to 74%
- pest or weed control at 35 g/ha [2, 14]: 95 to 100%
- pest or weed control at 70 g/ha [2, 14]: 95 to 100%
- pest or weed control at 140 g/ha [2, 14]: 95 to 100%

From US9149038B2, “4-amino-6-(heterocyclic)picolinates and 6-amino-2-(heterocyclic)pyrimidine-4-carboxylates and their use as herbicides” (Dow AgroSciences LLC, priority 2013, dated 2015)
